Reference: ChEMBL document CHEMBL6127090, “Further Probing the Properties of a Unique Sponge-derived Alkaloid Through the Isolation of a New (-)-(5E)-(8R)-(14Z)-Mycothiazole Analogue” (J Nat Prod, 2024)
The source made the active and inactive calls. The rule behind the calls is not given here.

Legend:
[1] = system: Caenorhabditis elegans; experiment: Induction of mitochondrial morphology change in Caenorhabditis elegans at 5 uM incubated for 24 hrs; assay type: functional, organism-based
[2] = system: Caenorhabditis elegans; experiment: Activation of unfolded protein response in Caenorhabditis elegans mitochondria at 5 uM; assay type: functional, organism-based
[3] = system: Caenorhabditis elegans; experiment: Reduction in oxygen consumption rate in Caenorhabditis elegans at 5 uM incubated for 24 hrs; assay type: functional, organism-based
[4] = Toxicity in iv dosed mouse assessed as maximum tolerated dose; assay type: organism-based; details: in vivo
[5] = system: Caenorhabditis elegans; experiment: Inhibition of mitochondrial electron transport chain in Caenorhabditis elegans assessed as increase in life span at 5 uM; assay type: functional, organism-based
[6] = system: PANC-1; experiment: Cytotoxicity against human PANC-1 cells incubated for 3 days by trypan blue assay; assay type: functional, cell-based; details: PANC-1, 72 h
[7] = system: HepG2; experiment: Cytotoxicity against human HepG2 cells incubated for 3 days by trypan blue assay; assay type: functional, cell-based; details: HepG2, 72 h

| SMILES | Activity [1] | Activity [2] | Activity [3] | MTD [4] [mg/kg] | Activity [5] | IC50 [6] [µM] | IC50 [7] [µM] |
| --- | --- | --- | --- | --- | --- | --- | --- |
| C=CC/C=C\Cc1csc(C(C)(C)[C@H](C/C=C\C(=C)CCNC(=O)OC)OC(C)=O)n1 | inactive | inactive | Active | 0.1 | Active | – | – |
| C=CC/C=C\Cc1csc(C(C)(C)[C@@H](O)C/C=C\C(=C)CCNC(=O)OC)n1 | inactive | inactive | Active | – | Active | – | – |
| C=CC/C=C\Cc1csc(C(C)(C)[C@H](O)C/C=C/C(=C)CCNC(=O)OC)n1 | inactive | inactive | Active | – | Active | 0.112 | 0.115 |
| C=CC/C=C\Cc1csc(C(C)(C)[C@H](O)C/C=C\C(=C)CCNC(=O)OC)n1 | inactive | inactive | Active | – | Active | – | – |
